Measurements published in paper PMC12514245, “Impaired migration and lung invasion of human melanoma by a novel small molecule targeting the transmembrane domain of death receptor p75^NTR” (EMBO Molecular Medicine, 2025).
“And” between values parts separate entries of the source, which are not always exact repeats. Equal values may be shown once.

Key:
[1] = system: A875 NT cells; assay: Wound healing cell motility assay, A875 NT; type: cell-based, human; conditions: for Fold (wound area) / Wound area (Fold): A875 NT; for Fold (wound area): 0.75uM
Protocol: For wound healing assay, cells were grown until confluency and subjected to a wound across the cell mono-layer. Cells were then incubated with serum-free media either with DMSO or a small molecule (with or without 5 µM Q_VD_poH) and imaged at specific time-points. Cell migration is reflected as fold change in wound area over time.

[2] = system: A875 NT cells; assay: Boyden chamber chemotaxis/invasion assay, A875 NT; type: cell-based, human; conditions: for Fold change - invading cells, Mean / Fold change - invading cells, individual replicates: 1μM
Protocol: For Boyden chamber assay, Corning® BioCoat™ Matrigel® Invasion Chambers 8.0 µm PET Membrane were used (cat. no. 354480). A875 NT or WM115 cells were serum-starved for 16 h and then seeded at 60,000 cells per well in serum-free media under different conditions, including DMSO (vehicle) or small molecules Div17E5 or Np75-4A22 at different concentrations to the top chamber of the Matrigel-coated trans-well chamber. The pan-caspase inhibitor Q_VD_poH (at 5 µM) was also introduced in the top chamber in some experiments. Two different chemoattractants, NGF (at 50 ng/ml or 100 ng/ml as indicated) or 10% FBS were added to the bottom chamber. Assays were carried out for 8 h after which filters were fixed in 4% PFA and stained with DAPI. Cells that had remained on the top of the filter were gently scrapped away with a cotton tip. The filter lower side was imaged on an inverted fluorescence microscope and counted using ImageJ software (NIH).

Cc1cccc(-c2cncc(Nc3ccc(Br)c(Cl)c3Cl)n2)c1C [Np75-4A22]
Fold (wound area) ([1]; 0 h, Average): 1.000 Fold
Fold (wound area) ([1]; 0 h, n1): 1.000 Fold
Fold (wound area) ([1]; 0 h, n2): 1.000 Fold
Fold (wound area) ([1]; 0 h, n3): 1.000 Fold
Fold (wound area) ([1]; 3 h, Average): 0.916 Fold
Fold (wound area) ([1]; 3 h, n1): 0.908 Fold
Fold (wound area) ([1]; 3 h, n2): 0.920 Fold
Fold (wound area) ([1]; 3 h, n3): 0.920 Fold
Fold (wound area) ([1]; 6 h, Average): 0.871 Fold
Fold (wound area) ([1]; 6 h, n1): 0.867 Fold
Fold (wound area) ([1]; 6 h, n2): 0.870 Fold
Fold (wound area) ([1]; 6 h, n3): 0.875 Fold
Fold (wound area) ([1]; 9 h, Average): 0.851 Fold
Fold (wound area) ([1]; 9 h, n1): 0.821 Fold
Fold (wound area) ([1]; 9 h, n2): 0.862 Fold
Fold (wound area) ([1]; 9 h, n3): 0.870 Fold
Fold (wound area) ([1]; 12 h, Average): 0.799 Fold
Fold (wound area) ([1]; 12 h, n1): 0.783 Fold
Fold (wound area) ([1]; 12 h, n2): 0.824 Fold
Fold (wound area) ([1]; 12 h, n3): 0.790 Fold
Fold (wound area) ([1]; 15 h, Average): 0.781 Fold
Fold (wound area) ([1]; 15 h, n1): 0.755 Fold
Fold (wound area) ([1]; 15 h, n2): 0.799 Fold
Fold (wound area) ([1]; 15 h, n3): 0.789 Fold
Fold (wound area) ([1]; 18 h, Average): 0.759 Fold
Fold (wound area) ([1]; 18 h, n1): 0.732 Fold
Fold (wound area) ([1]; 18 h, n2): 0.791 Fold
Fold (wound area) ([1]; 18 h, n3): 0.755 Fold
Fold (wound area) ([1]; 21 h, Average): 0.739 Fold
Fold (wound area) ([1]; 21 h, n1): 0.694 Fold
Fold (wound area) ([1]; 21 h, n2): 0.751 Fold
Fold (wound area) ([1]; 21 h, n3): 0.773 Fold
Fold (wound area) ([1]; 24 h, Average): 0.707 Fold
Fold (wound area) ([1]; 24 h, n1): 0.674 Fold
Fold (wound area) ([1]; 24 h, n2): 0.730 Fold
Fold (wound area) ([1]; 24 h, n3): 0.715 Fold
Wound area (Fold) ([1]; 1uM, 0 h, Mean): 1.000 Fold
Wound area (Fold) ([1]; 1uM, 0 h, n1): 0.9625 Fold
Wound area (Fold) ([1]; 1uM, 0 h, n2): 0.9804 Fold
Wound area (Fold) ([1]; 1uM, 0 h, n3): 1.057 Fold
Wound area (Fold) ([1]; 1uM, 3 h, Mean): 0.967 Fold
Wound area (Fold) ([1]; 1uM, 3 h, n1): 0.9475 Fold
Wound area (Fold) ([1]; 1uM, 3 h, n2): 1.012 Fold
Wound area (Fold) ([1]; 1uM, 3 h, n3): 0.9416 Fold
Wound area (Fold) ([1]; 1uM, 6 h, Mean): 0.905 Fold
Wound area (Fold) ([1]; 1uM, 6 h, n1): 0.8734 Fold
Wound area (Fold) ([1]; 1uM, 6 h, n2): 0.9482 Fold
Wound area (Fold) ([1]; 1uM, 6 h, n3): 0.8944 Fold
Wound area (Fold) ([1]; 1uM, 9 h, Mean): 0.855 Fold
Wound area (Fold) ([1]; 1uM, 9 h, n1): 0.8188 Fold
Wound area (Fold) ([1]; 1uM, 9 h, n2): 0.9061 Fold
Wound area (Fold) ([1]; 1uM, 9 h, n3): 0.8389 Fold
Wound area (Fold) ([1]; 1uM, 12 h, Mean): 0.827 Fold
Wound area (Fold) ([1]; 1uM, 12 h, n1): 0.7941 Fold
Wound area (Fold) ([1]; 1uM, 12 h, n2): 0.8768 Fold
Wound area (Fold) ([1]; 1uM, 12 h, n3): 0.8105 Fold
Wound area (Fold) ([1]; 1uM, 15 h, Mean): 0.795 Fold
Wound area (Fold) ([1]; 1uM, 15 h, n1): 0.7522 Fold
Wound area (Fold) ([1]; 1uM, 15 h, n2): 0.8472 Fold
Wound area (Fold) ([1]; 1uM, 15 h, n3): 0.7844 Fold
Wound area (Fold) ([1]; 1uM, 18 h, Mean): 0.773 Fold
Wound area (Fold) ([1]; 1uM, 18 h, n1): 0.739 Fold
Wound area (Fold) ([1]; 1uM, 18 h, n2): 0.8198 Fold
Wound area (Fold) ([1]; 1uM, 18 h, n3): 0.7589 Fold
Wound area (Fold) ([1]; 1uM, 21 h, Mean): 0.762 Fold
Wound area (Fold) ([1]; 1uM, 21 h, n1): 0.7242 Fold
Wound area (Fold) ([1]; 1uM, 21 h, n2): 0.8105 Fold
Wound area (Fold) ([1]; 1uM, 21 h, n3): 0.7528 Fold
Wound area (Fold) ([1]; 1uM, 24 h, Mean): 0.743 Fold
Wound area (Fold) ([1]; 1uM, 24 h, n1): 0.7122 Fold
Wound area (Fold) ([1]; 1uM, 24 h, n2): 0.7843 Fold
Wound area (Fold) ([1]; 1uM, 24 h, n3): 0.7318 Fold
Wound area (Fold) ([1]; 2uM, 0 h, Mean): 1.000 Fold
Wound area (Fold) ([1]; 2uM, 0 h, n1): 1.119 Fold
Wound area (Fold) ([1]; 2uM, 0 h, n2): 0.971 Fold
Wound area (Fold) ([1]; 2uM, 0 h, n3): 0.910 Fold
Wound area (Fold) ([1]; 2uM, 3 h, Mean): 0.939 Fold
Wound area (Fold) ([1]; 2uM, 3 h, n1): 0.920 Fold
Wound area (Fold) ([1]; 2uM, 3 h, n2): 0.934 Fold
Wound area (Fold) ([1]; 2uM, 3 h, n3): 0.964 Fold
Wound area (Fold) ([1]; 2uM, 6 h, Mean): 0.916 Fold
Wound area (Fold) ([1]; 2uM, 6 h, n1): 0.889 Fold
Wound area (Fold) ([1]; 2uM, 6 h, n2): 0.924 Fold
Wound area (Fold) ([1]; 2uM, 6 h, n3): 0.935 Fold
Wound area (Fold) ([1]; 2uM, 9 h, Mean): 0.883 Fold
Wound area (Fold) ([1]; 2uM, 9 h, n1): 0.869 Fold
Wound area (Fold) ([1]; 2uM, 9 h, n2): 0.889 Fold
Wound area (Fold) ([1]; 2uM, 9 h, n3): 0.891 Fold
Wound area (Fold) ([1]; 2uM, 12 h, Mean): 0.872 Fold
Wound area (Fold) ([1]; 2uM, 12 h, n1): 0.845 Fold
Wound area (Fold) ([1]; 2uM, 12 h, n2): 0.886 Fold
Wound area (Fold) ([1]; 2uM, 12 h, n3): 0.885 Fold
Wound area (Fold) ([1]; 2uM, 15 h, Mean): 0.864 Fold
Wound area (Fold) ([1]; 2uM, 15 h, n1): 0.827 Fold
Wound area (Fold) ([1]; 2uM, 15 h, n2): 0.886 Fold
Wound area (Fold) ([1]; 2uM, 15 h, n3): 0.880 Fold
Wound area (Fold) ([1]; 2uM, 18 h, Mean): 0.859 Fold
Wound area (Fold) ([1]; 2uM, 18 h, n1): 0.819 Fold
Wound area (Fold) ([1]; 2uM, 18 h, n2): 0.879 Fold
Wound area (Fold) ([1]; 2uM, 18 h, n3): 0.879 Fold
Wound area (Fold) ([1]; 2uM, 21 h, Mean): 0.856 Fold
Wound area (Fold) ([1]; 2uM, 21 h, n1): 0.813 Fold
Wound area (Fold) ([1]; 2uM, 21 h, n2): 0.878 Fold
Wound area (Fold) ([1]; 2uM, 21 h, n3): 0.878 Fold
Wound area (Fold) ([1]; 2uM, 24 h, Mean): 0.847 Fold
Wound area (Fold) ([1]; 2uM, 24 h, n1): 0.809 Fold
Wound area (Fold) ([1]; 2uM, 24 h, n2): 0.868 Fold
Wound area (Fold) ([1]; 2uM, 24 h, n3): 0.864 Fold
wound healing assay ([1]; low micromolar and submicromolar concentrations): considerable inhibitory activity
INVADING CELLS Average ([2]; 0.5μM, NGF (50 ng/ml)): 217.00
INVADING CELLS Fold Average ([2]; 0.5μM, NGF (50 ng/ml)): 1.60 Fold
INVADING CELLS Fold change ([2]; 0.5μM, NGF (50 ng/ml)): 1.65 Fold and 1.68 Fold and 1.46 Fold
INVADING CELLS count ([2]; 0.5μM, NGF (50 ng/ml)): 224 and 229 and 198
INVADING CELLS Average ([2]; 0.5μM, No NGF): 115.33
INVADING CELLS Fold Average ([2]; 0.5μM, No NGF): 0.85 Fold
INVADING CELLS Fold change ([2]; 0.5μM, No NGF): 0.82 Fold and 0.92 Fold and 0.80 Fold
INVADING CELLS count ([2]; 0.5μM, No NGF): 112 and 125 and 109
INVADING CELLS Average ([2]; 0.75μM, NGF (50 ng/ml)): 161.00
INVADING CELLS Fold Average ([2]; 0.75μM, NGF (50 ng/ml)): 1.18 Fold
INVADING CELLS Fold change ([2]; 0.75μM, NGF (50 ng/ml)): 1.31 Fold and 1.11 Fold and 1.13 Fold
INVADING CELLS count ([2]; 0.75μM, NGF (50 ng/ml)): 178 and 151 and 154
INVADING CELLS Average ([2]; 0.75μM, No NGF): 131.00
INVADING CELLS Fold Average ([2]; 0.75μM, No NGF): 0.96 Fold
INVADING CELLS Fold change ([2]; 0.75μM, No NGF): 0.99 Fold and 1.01 Fold and 0.90 Fold
INVADING CELLS count ([2]; 0.75μM, No NGF): 134 and 137 and 122
Fold change - invading cells, Mean ([2]; NGF): 1.46
Fold change - invading cells, individual replicates ([2]; NGF): 1.24 and 1.52 and 1.63
Fold change - invading cells, Mean ([2]; no NGF): 0.96
Fold change - invading cells, individual replicates ([2]; no NGF): 1.22 and 0.88 and 0.78
NGF activity in Boyden chamber assay of cell chemotaxis ([2]; 1 μM, NGF 50 ng/ml): blocked all NGF activity
NGF-induced A875 chemotaxis ([2]; submicromolar concentrations, NGF 50 ng/ml): significantly reducing
